# From patent US10632125B2, “MTH1 inhibitors for treatment of inflammatory and autoimmune conditions” (THOMAS HELLEDAYS STIFTELSE FÖR MEDICINSK FORSKNING, priority 2014, dated 2020)
# Molecular target: MTH1 (Homo sapiens, UniProt P36639)
# Experiment: MTH1 enzymatic assay (malachite green, coupled to pyrophosphatase)
# Format: biochemical
# Details: dGTP 100 μM, MTH1 6 nM; 96- or 384-well format; read-out: IC50
# Procedure: MTH1 catalyzes the hydrolysis of dGTP to dGMP and PPi. By coupling the reaction to pyrophosphatase added in excess PPi is converted to Pi that can be detected by using the malachite green assay reagent. […] 96-well method: Briefly, the compound to be analyzed is diluted in DMSO in a 1:3 dilution series generating 12 different compound concentrations giving a final DMSO concentration of 1% in the assay well. MTH1 diluted in assay buffer (100 mM Tris-acetate, 40 mM NaCl, 10 mM magnesium acetate, 1 mM DTT and 0.005% Tween 20) fortified with E. coli pyrophosphatase (0.2 U/ml) is added to a final concentration of 6 nM. dGTP diluted in assay buffer is added to a final concentration of 100 μM. The reaction mixture is incubated for 15 minutes at 22° C. To 100 μl reaction mixture, 25 μl Malachite green assay regent (0.095% Malachite green in 17% H2SO4, 1.5% Ammonium molybdate, 0.17% Tween 20) is added, followed by incubation with shaking for 15 minutes at 22° C. The absorbance of the assay plate is read at 630 nm using a Hidex Sense Multilabel plate reader. The IC50 value is determined by fitting a dose response curve to the data points using nonlinear regression analysis and the equation Y=Bottom+(Top-Bottom)/(1+10^((Log IC50−X)*HillSlope)), where Y is the read absorbance at 630 nm and X is log [compound].
# 384-Well Method: The compounds to be tested are nano-dispensed, in 11 concentrations, directly in assay plates, with a final DMSO concentration <1%. The protocol and the reaction mixture are the same as for the 96-well assay, with a total reaction volume of 50 μl/well to which 10 μl of Malachite green reagent is added. All additions to the assay plates are made with multidrop.
row,Compound,IC50 [nM]
1,"Cc1cccc(-c2cc(NCCc3ccccc3)nc(N)n2)c1C [Example 118, 6-(2,3-dimethylphenyl)-4-N-(2-phenylethyl)pyrimidine-2,4-diamine]",< 200
2,"Cc1cccc(-c2nc(N)nc3c2CCCN3)c1C [Example 121, 4-(2,3-dimethylphenyl)-5H,6H,7H,8H-pyrido[2,3-d]pyrimidin-2-amine]",< 200
3,"Nc1nc2c(c(-c3cccc(Cl)c3Cl)n1)CCCN2 [Example 122, 4-(2,3-dichlorophenyl)-5H,6H,7H,8H-pyrido[2,3-d]pyrimidin-2-amine]",< 200
4,"Nc1nc2c(c(-c3cn(S(=O)(=O)c4ccccc4)c4ccccc34)n1)CCCN2 [Example 123, 4-[1-(benzenesulfonyl)-1H-indol-3-yl]-5H,6H,7H,8H-pyrido[2,3-d]pyrimidin-2-amine]",< 200
5,"COc1ccc(CCNc2cc(-c3cccc(C)c3C)nc(N)n2)cc1 [Example 125, 6-(2,3-dimethylphenyl)-4-N-[2-(4-methoxyphenyl)ethyl]pyrimidine-2,4-diamine]",< 200
6,"Cc1cccc(-c2cc(NCCc3ccc(Cl)cc3)nc(N)n2)c1C [Example 128, 4-N-[2-(4-chlorophenyl)ethyl]-6-(2,3-dimethylphenyl)pyrimidine-2,4-diamine]",< 200
7,"Cc1cccc(-c2cc(NCC(C)c3ccccc3)nc(N)n2)c1C (stereo not shown) [Example 130, 6-(2,3-dimethylphenyl)-4-N-(2-phenylpropyl)pyrimidine-2,4-diamine]",< 200
8,"Cc1cccc(-c2cc(NCCNc3ccccc3)nc(N)n2)c1C [Example 133, 6-(2,3-dimethylphenyl)-4-N-[2-(phenylamino)ethyl]pyrimidine-2,4-diamine]",< 200
9,"Cc1cccc(-c2cc(NCCc3c[nH]c4ccccc34)nc(N)n2)c1C [Example 134, 6-(2,3-dimethylphenyl)-4-N-[2-(1H-indol-3-yl)ethyl]pyrimidine-2,4-diamine]",< 200
10,"Cc1cccc(-c2cc(NCCN3CCNC3=O)nc(N)n2)c1C [Example 136, 1-(2-{[2-amino-6-(2,3-dimethylphenyl)pyrimidin-4-yl]amino}ethyl)imidazolidin-2-one]",< 200
11,"Cc1cccc(-c2cc(NCCCN3CCCC3=O)nc(N)n2)c1C [Example 137, 1-(3-{[2-amino-6-(2,3-dimethylphenyl)pyrimidin-4-yl]amino}propyl)pyrrolidin-2-one]",< 200
12,"Cc1ccc(S(=O)(=O)n2cc(-c3cc(NC4CCC4)nc(N)n3)c3ccccc32)cc1 [Example 152, 4-N-cyclobutyl-6-[1-(4-methylbenzenesulfonyl)-1H-indol-3-yl]pyrimidine-2,4-diamine]",< 200
13,"Cc1cccc(-c2cc(NC3CCCC3)nc(N)n2)c1C [Example 153, 4-N-cyclopentyl-6-(2,3-dimethylphenyl)pyrimidine-2,4-diamine]",< 200
14,"CNc1cc(-c2cn(S(=O)(=O)c3ccc(C(F)(F)F)cc3)c3ccccc23)nc(N)n1 [Example 155, 4-N-methyl-6-{1-[4-(trifluoromethyl)benzenesulfonyl]-1H-indol-3-yl}pyrimidine-2,4-diamine]",< 200
15,"Cc1cccc(-c2cc(NC3CCCCC3)nc(N)n2)c1C [Example 156, 4-N-cyclohexyl-6-(2,3-dimethylphenyl)pyrimidine-2,4-diamine]",< 200
16,"Cc1ccc(S(=O)(=O)n2cc(-c3cc(NC(C)C)nc(N)n3)c3ccccc32)cc1 [Example 163, 6-[1-(4-methylbenzenesulfonyl)-1H-indol-3-yl]-4-N-(propan-2-yl)pyrimidine-2,4-diamine]",< 200

# Second part, the compound after the results:
row,IC50 [nM],Compound
1,< 200,"CNc1cc(-c2cc(F)cc(F)c2)nc(N)n1 [Example 124, 6-(3,5-difluorophenyl)-4-N-methylpyrimidine-2,4-diamine]"
2,< 200,"CNc1cc(-c2cc(C)c(O)c(C)c2)nc(N)n1 [Example 138, 4-[2-amino-6-(methylamino)pyrimidin-4-yl]-2,6-dimethylphenol]"
3,< 200,"CNc1cc(-c2ccc(O)c(OC)c2)nc(N)n1 [Example 139, 4-[2-amino-6-(methylamino)pyrimidin-4-yl]-2-methoxyphenol]"
4,< 200,"CNc1cc(-c2ccc(O)c(F)c2)nc(N)n1 [Example 140, 4-[2-amino-6-(methylamino)pyrimidin-4-yl]-2-fluorophenol]"
5,< 200,"CNc1cc(-c2ccccc2C)nc(N)n1 [Example 143, 4-N-methyl-6-(2-methylphenyl)pyrimidine-2,4-diamine]"
6,< 200,"CNc1cc(-c2ccc3[nH]ncc3c2C)nc(N)n1 [Example 145, 4-N-methyl-6-(4-methyl-1H-indazol-5-yl)pyrimidine-2,4-diamine]"
7,< 200,"CNc1cc(-c2cccc(C)c2)nc(N)n1 [Example 147, 4-N-methyl-6-(3-methylphenyl)pyrimidine-2,4-diamine]"
8,< 200,"CCNc1cc(-c2cccc(C)c2C)nc(N)n1 [Example 158, 6-(2,3-dimethylphenyl)-4-N-ethylpyrimidine-2,4-diamine]"
9,< 200,"CNc1cc(-c2coc3ccccc23)nc(N)n1 [Example 170, 6-(1-benzofuran-3-yl)-4-N-methylpyrimidine-2,4-diamine]"
10,< 200,"CNc1cc(-c2csc3ccccc23)nc(N)n1 [Example 172, 6-(1-benzothiophen-3-yl)-4-N-methylpyrimidine-2,4-diamine]"
11,< 200,"CC(C)Nc1cc(-c2cccc(Cl)c2Cl)nc(N)n1 [Example 176, 6-(2,3-dichlorophenyl)-4-N-(propan-2-yl)pyrimidine-2,4-diamine]"
12,< 200,"Nc1nc(NCC2CC2)cc(-c2cccc(Cl)c2Cl)n1 [Example 177, 4-N-(cyclopropylmethyl)-6-(2,3-dichlorophenyl)pyrimidine-2,4-diamine]"
13,< 200,"CNc1cc(-c2cc(Br)ccc2OC)nc(N)n1 [Example 183, 6-(5-bromo-2-methoxyphenyl)-4-N-methylpyrimidine-2,4-diamine]"
14,< 200,"CNc1cc(-c2cc(C)ccc2C)nc(N)n1 [Example 184, 6-(2,5-dimethylphenyl)-4-N-methylpyrimidine-2,4-diamine]"
15,< 200,"CNc1cc(-c2cccnc2C(F)(F)F)nc(N)n1 [Example 185, 4-N-methyl-6-[2-(trifluoromethyl)pyridin-3-yl]pyrimidine-2,4-diamine]"
16,< 200,"CNc1cc(-c2ccc(OCc3ccccc3)cc2C)nc(N)n1 [Example 187, 6-[4-(benzyloxy)-2-methylphenyl]-4-N-methylpyrimidine-2,4-diamine]"
17,< 200,"CNc1cc(-c2cc(C)c(OC)cc2C)nc(N)n1 [Example 188, 6-(4-methoxy-2,5-dimethylphenyl)-4-N-methylpyrimidine-2,4-diamine]"
18,< 200,"CNc1cc(-c2cc(C)c(C)cc2C)nc(N)n1 [Example 189, 4-N-methyl-6-(2,4,5-trimethylphenyl)pyrimidine-2,4-diamine]"
19,< 200,"CNc1cc(-c2cc(Cl)ccc2C#N)nc(N)n1 [Example 190, 2-[2-amino-6-(methylamino)pyrimidin-4-yl]-4-chlorobenzonitrile]"
20,< 200,"CNc1cc(-c2cc(Cl)c(Cl)cc2C)nc(N)n1 [Example 191, 6-(4,5-dichloro-2-methylphenyl)-4-N-methylpyrimidine-2,4-diamine]"
21,< 200,"CNc1cc(-c2cc(C)c(F)cc2C)nc(N)n1 [Example 193, 6-(4-fluoro-2,5-dimethylphenyl)-4-N-methylpyrimidine-2,4-diamine]"
